Data published in ChEMBL document CHEMBL1159029, “An Epoxydon-Derived Ester from a Phoma sp. Pathogenic to Rhubarb” (1992).

Experiments:
Sorghum bicolor = assay: Phytotoxicity against Sorghum bicolor assessed as brownish-black necrotic lesion area at 50 ug within 48 hrs by detached leaf assay; format: functional
Nasturtium officinale = assay: Phytotoxicity against Nasturtium officinale assessed as brownish-black necrotic lesions area at 50 ug within 48 hrs by detached leaf assay; format: functional
Ipomoea = assay: Phytotoxicity against Ipomoea sp. assessed as brownish-black necrotic lesion area at 50 ug within 48 hrs by detached leaf assay; format: functional
Sida spinosa = assay: Phytotoxicity against Sida spinosa assessed as brownish-black necrotic lesion area at 50 ug within 48 hrs by detached leaf assay; format: functional
Senna obtusifolia = assay: Phytotoxicity against Senna obtusifolia assessed as brownish-black necrotic lesion area at 50 ug within 48 hrs by detached leaf assay; format: functional
Sorghum halepense = assay: Phytotoxicity against Sorghum halepense assessed as brownish-black necrotic lesion area at 50 ug within 48 hrs by detached leaf assay; format: functional
Chenopodium album = assay: Phytotoxicity against Chenopodium album assessed as brownish-black necrotic lesion area at 50 ug within 48 hrs by detached leaf assay; format: functional
Datura stramonium = assay: Phytotoxicity against Datura stramonium assessed as brownish-black necrotic lesion area at 50 ug within 48 hrs by detached leaf assay; format: functional
Rheum rhabarbarum = assay: Phytotoxicity against Rhubarb assessed as brownish-black necrotic lesion area at 50 ug up to 48 hrs by detached leaf assay; format: functional
[1] = tested on: Curtobacterium flaccumfaciens; assay: Antimicrobial activity against Corynebacterium flaccumfaciens CF-20 at 0.25 mg/disk by disk assay; format: functional
Escherichia coli [2] = assay: Antimicrobial activity against Escherichia coli DH 5alpha at 0.5 mg/disk by disk assay; format: functional
[3] = tested on: Pectobacterium carotovorum; assay: Antimicrobial activity against Erwinia carotovora EC-14 at 0.25 mg/disk by disk assay; format: functional
Colletotrichum acutatum [4] = assay: Antimicrobial activity against Colletotrichum acutatum NC 1618 at 0.25 mg/disk by disk assay; format: functional
Aspergillus flavus [5] = assay: Antimicrobial activity against Aspergillus flavus AF3357 at 0.5 mg/disk by disk assay; format: functional, AF-3357
[6] = tested on: Pectobacterium carotovorum; assay: Antimicrobial activity against Erwinia carotovora EC-14 at 0.5 mg/disk by disk assay; format: functional
[7] = tested on: Agrobacterium tumefaciens; assay: Antimicrobial activity against Agrobacterium tumefaciens C-58 at 0.5 mg/disk by disk assay; format: functional
Colletotrichum acutatum [8] = assay: Antimicrobial activity against Colletotrichum acutatum NC 1618 at 0.5 mg/disk by disk assay; format: functional
Penicillium chrysogenum [9] = assay: Antimicrobial activity against Penicillium notatum AT-9479 at 0.25 mg/disk by disk assay; format: functional
Aspergillus flavus [10] = assay: Antimicrobial activity against Aspergillus flavus AF3357 at 0.25 mg/disk by disk assay; format: functional, AF-3357
Escherichia coli [11] = assay: Antimicrobial activity against Escherichia coli DH 5alpha at 0.25 mg/disk by disk assay; format: functional
Penicillium chrysogenum [12] = assay: Antimicrobial activity against Penicillium notatum AT-9479 at 0.5 mg/disk by disk assay; format: functional
[13] = tested on: Curtobacterium flaccumfaciens; assay: Antimicrobial activity against Corynebacterium flaccumfaciens CF-20 at 0.5 mg/disk by disk assay; format: functional
[14] = tested on: Agrobacterium tumefaciens; assay: Antimicrobial activity against Agrobacterium tumefaciens C-58 at 0.25 mg/disk by disk assay; format: functional
Phoma = assay: Antimicrobial activity against Phoma sp. at 0.5 mg/disk by disk assay; format: functional
Aspergillus flavus [15] = assay: Antimicrobial activity against Aspergillus flavus AF3357 at 1 mg/disk by disk assay; format: functional, AF-3357
Colletotrichum acutatum [16] = assay: Antimicrobial activity against Colletotrichum acutatum NC 1618 at 1 mg/disk by disk assay; format: functional
[17] = tested on: Agrobacterium tumefaciens; assay: Antimicrobial activity against Agrobacterium tumefaciens C-58 at 1 mg/disk by disk assay; format: functional
[18] = tested on: Curtobacterium flaccumfaciens; assay: Antimicrobial activity against Corynebacterium flaccumfaciens CF-20 at 1 mg/disk by disk assay; format: functional
[19] = tested on: Pectobacterium carotovorum; assay: Antimicrobial activity against Erwinia carotovora EC-14 at 1 mg/disk by disk assay; format: functional
Penicillium chrysogenum [20] = assay: Antimicrobial activity against Penicillium notatum AT-9479 at 1 mg/disk by disk assay; format: functional
Escherichia coli [21] = assay: Antimicrobial activity against Escherichia coli DH 5alpha at 1 mg/disk by disk assay; format: functional

| Compound | Activity (Sorghum bicolor) [mm2] | Activity (Nasturtium officinale) [mm2] | Activity (Ipomoea) [mm2] | Activity (Sida spinosa) [mm2] | Activity (Senna obtusifolia) [mm2] | Activity (Sorghum halepense) [mm2] | Activity (Chenopodium album) [mm2] | Activity (Datura stramonium) [mm2] | Activity (Rheum rhabarbarum) [mm2] | Diameter of inhibition zone [1] [mm] | Diameter of inhibition zone (Escherichia coli [2]) [mm] | Diameter of inhibition zone [3] [mm] | Diameter of inhibition zone (Colletotrichum acutatum [4]) [mm] | Diameter of inhibition zone (Aspergillus flavus [5]) [mm] | Diameter of inhibition zone [6] [mm] | Diameter of inhibition zone [7] [mm] | Diameter of inhibition zone (Colletotrichum acutatum [8]) [mm] | Diameter of inhibition zone (Penicillium chrysogenum [9]) [mm] | Diameter of inhibition zone (Penicillium chrysogenum [12]) [mm] | Diameter of inhibition zone [13] [mm] | further results |
| --- | --- | --- | --- | --- | --- | --- | --- | --- | --- | --- | --- | --- | --- | --- | --- | --- | --- | --- | --- | --- | --- |
| Cc1cccc(O)c1C(=O)O[C@@H]1C(=O)C(CO)=C[C@@H](O)[C@H]1O | 41 | 44 | 21 | 24 | 33 | 7 | 13 | 9 | 18 | – | – | – | – | – | – | – | – | – | – | – | – |
| O=C1C(CO)=C[C@@H](O)[C@H]2O[C@@H]12 [EPOXYDON] | 31 | 41 | 51 | 25 | 17 | 37 | 62 | 31 | 27 | 12 | 25.3 | 9 | 10 | 8 | 17 | 12 | 12 | 0 | 10 | 20 | Diameter of inhibition zone (Aspergillus flavus [10]): 0 mm; Diameter of inhibition zone (Escherichia coli [11]): 18 mm; Diameter of inhibition zone [14]: 10 mm |
| CC1=C[C@@H](O)[C@H]2O[C@H]2C1=O [DESOXYEPOXYDON] | 69 | 34 | 64 | 74 | 51 | 30 | 57 | 73 | 42 | 38 | 44 | 31 | 40 | 22 | 45 | 56 | 60 | 15 | 27 | 49 | Diameter of inhibition zone (Aspergillus flavus [10]): 15 mm; Diameter of inhibition zone (Phoma): 30 mm; Diameter of inhibition zone (Escherichia coli [11]): 35 mm; Diameter of inhibition zone [14]: 43 mm |
| Cc1cccc(O)c1C(=O)O | 37 | 17 | 15 | 23 | 11 | 15 | 27 | 48 | 55 | – | 0 | – | – | 10 | 0 | 18 | 8 | – | 12 | 16 | Diameter of inhibition zone (Aspergillus flavus [15]): 17 mm; Diameter of inhibition zone (Colletotrichum acutatum [16]): 22 mm; Diameter of inhibition zone [17]: 25 mm; Diameter of inhibition zone [18]: 21 mm; Diameter of inhibition zone [19]: 0 mm; Diameter of inhibition zone (Phoma): 16 mm; Diameter of inhibition zone (Penicillium chrysogenum [20]): 18 mm; Diameter of inhibition zone (Escherichia coli [21]): 0 mm |
